Assay results reported in patent US12357603B2, “Acyl sulfonamides for treating cancer” (Bayer Aktiengesellschaft, priority 2019, dated 2025).

Experiments:
ZR-75-1 cells = experiment: Proliferation assay ZR-75-1 (Alamar Blue, 144 h); type: cell-based; conditions: Homo sapiens, ZR-75-1, 144 h, arithmetic mean, read-out: ZR75-1 proliferation assay, EC50 [M] (arithmetic mean)
Outline: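 Cells seeded at 3000/well in RPMI 1640 with 2.5% FBS and treated 24 h later across 2.0×10E-5 to 2.0×10E-9 M (9 dilutions, 0.2% DMSO, triplicate). After 144 h at 37 °C, 5% CO2, viability read by Alamar Blue fluorescence at 590 nm following 2 h reagent incubation.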

[1] = target: Recombinant human His-tagged Kat6a protein (amino acids 194-810) (Homo sapiens (Human), UniProt Q92794); experiment: Kat6a activity assay (TR-FRET, acetylation of biotinylated Histone-H4-derived peptide); type: biochemical; conditions: 60 mins at 22° C., read-out: KAT6A-DPF/HAT domain IC50 [mol/l] (arithmetic mean)
Outline: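 Sf9-expressed human His-Kat6a (aa 194-810) incubated 60 min at 22 °C with compounds (0.01-20 μM) in Tris pH 8 buffer containing 220 nM biotinylated H4 peptide (aa 1-24) and 600 nM acetyl-CoA. Acetyl-K8 detected by TR-FRET (665/620 nm ratio); IC50 by four-parameter fit versus DMSO controls.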

[2] = test system: ESR1 transcription (luciferase signal in MVLN cells); experiment: Repression of ESR1 transcription, luciferase reporter in MVLN cells; type: cell-based; conditions: Homo sapiens, MVLN, inhibition of luciferase signal in MVLN cells; arithmetic mean
Outline: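 MVLN cells (constitutive ER, stably carrying a Vitellogenin A2 hormone-responsive element–luciferase reporter) treated in duplicate; luciferase read after 24 h. Cell density checked by Alamar Blue fluorescence (530/590 nm) after 2 h to exclude cell-loss effects.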

MDA-MB-436 cells = experiment: Proliferation assay MDA-MB-436, negative control cell line (Alamar Blue, 144 h); type: cell-based; conditions: Homo sapiens, MDA-MB-436, 144 h, arithmetic mean
Text: Proliferation Assays for Compound Characterization
For compound characterization cell survival assays were routinely run in two cell lines. ZR-75-1 is a breast carcinoma cell line containing a focal KAT6A amplification and high KAT6A protein expression. Proliferation of this cell line is inhibited upon treatment with KAT6A inhibitors. As a negative control cell line MDA-MB-436 were used. These cells carry a […] deletion of the KAT6A gene, have a low KAT6A protein expression and are not growth inhibited upon treatment with KAT6A inhibitors.
For measurements cell lines were plated at the below indicated concentration per […] in 96-well plates in a humidified incubator at 37° C. and 5% CO2.
MDA-MB-436 (CLS, 300278; breast adenocarcinoma); 3000 cells per well; culture medium: DMEM/Ham's F12 (Biochrom #FG 4815) medium containing 2.5% FBS (Biochrom #S0615).
24 hours later, cells were treated with compounds (stock solution, 10 mM in DMSO) using the HP D300 Digital Dispenser in a concentration range of 2.0×10E-5 M to 2.0×10E-9 M in a single-dot curve with 9 dilutions and a DMSO concentration of 0.2%. Each sample was prepared as triplicate and rim wells were excluded. Plates were incubated at 37° C. and 5% CO2 for 144 h. Cell viability was measured by adding 10 μL of Alamar Blue Reagent (Invitrogen #DAL 1100) and plates were incubated for 2 h at 37° C. and 5% CO2. Fluorescence was measured at 590 nm wavelength with a Tecan Spark or Victor X3 MTP-Reader (PerkinElmer).

Recombinant human His-tagged Kat6a protein (amino acids 194-810), sequence (Q92794 194-810): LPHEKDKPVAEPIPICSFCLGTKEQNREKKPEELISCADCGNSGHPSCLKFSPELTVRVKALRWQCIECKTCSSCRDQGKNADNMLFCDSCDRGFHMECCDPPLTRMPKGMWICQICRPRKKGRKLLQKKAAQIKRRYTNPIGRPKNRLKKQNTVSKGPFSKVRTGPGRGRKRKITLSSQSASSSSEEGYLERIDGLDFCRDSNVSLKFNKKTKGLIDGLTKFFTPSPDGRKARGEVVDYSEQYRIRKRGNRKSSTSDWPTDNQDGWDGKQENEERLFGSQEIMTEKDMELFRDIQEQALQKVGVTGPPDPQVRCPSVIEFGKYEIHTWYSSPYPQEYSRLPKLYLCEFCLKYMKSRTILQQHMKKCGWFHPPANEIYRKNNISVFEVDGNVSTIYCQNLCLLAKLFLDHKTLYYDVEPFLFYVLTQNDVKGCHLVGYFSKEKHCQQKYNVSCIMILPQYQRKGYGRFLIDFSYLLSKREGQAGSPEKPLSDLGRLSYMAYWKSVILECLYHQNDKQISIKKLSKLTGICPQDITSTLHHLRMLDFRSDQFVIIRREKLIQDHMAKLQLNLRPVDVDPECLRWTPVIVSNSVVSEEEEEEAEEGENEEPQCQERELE

| Compound | EC50 (ZR-75-1 cells) | IC50 [1] | IC50 [2] | EC50 (MDA-MB-436 cells) |
| --- | --- | --- | --- | --- |
| CCOc1nccc(C(F)(F)F)c1S(=O)(=O)NC(=O)c1cc2ccc(N(C)C)cc2o1 [Example 120, 6-(Dimethylamino)-N-[2-ethoxy-4-(trifluoromethyl)pyridine-3-sulfonyl]-1-benzofuran-2-carboxamide] | 4.57e-07 M | 1850 nM | 891 nM | > 20000 nM |
| CCOc1c(Cl)cccc1S(=O)(=O)NC(=O)c1cc2ccc(N(C)C)cc2o1 [Example 122, N-(3-Chloro-2-ethoxybenzene-1-sulfonyl)-6-(dimethylamino)-1-benzofuran-2-carboxamide] | 9.44e-07 M | 252 nM | 453 nM | > 20000 nM |
| CCOc1ccc(NC(C)=O)cc1S(=O)(=O)NC(=O)c1cc2ccc(N(C)C)cc2o1 [Example 128, N-(5-Acetamido-2-ethoxybenzene-1-sulfonyl)-6-(dimethylamino)-1-benzofuran-2-carboxamide] | 1.49e-06 M | 351 nM | 7800 nM | > 20000 nM |
| Cc1ccc(S(=O)(=O)NC(=O)c2cc3ccc(N(C)C)cc3o2)c(N)n1 [Example 130, N-(2-Amino-6-methylpyridine-3-sulfonyl)-6-(dimethylamino)-1-benzofuran-2-carboxamide] | 2.93e-06 M | 2180 nM | 4360 nM | 15100 nM |
| CCc1ncnc(OC)c1S(=O)(=O)NC(=O)c1cc2ccc(N(C)C)cc2o1 [Example 131, 6-(Dimethylamino)-N-(4-ethyl-6-methoxypyrimidine-5-sulfonyl)-1-benzofuran-2-carboxamide] | 8.31e-07 M | 470 nM | 325 nM | > 20000 nM |
| CCCOc1cccc(C)c1S(=O)(=O)NC(=O)c1cc2ccc(N(C)C)cc2o1 [Example 133, 6-(Dimethylamino)-N-(2-methyl-6-propoxybenzene-1-sulfonyl)-1-benzofuran-2-carboxamide] | 4.88e-07 M | 325 nM | 323 nM | > 20000 nM |
| CN(C)c1ccc2cc(C(=O)NS(=O)(=O)c3cc(Br)cnc3Cl)oc2c1 [Example 136] | 5.54e-06 M | 796 nM | 15400 nM | > 20000 nM |
| COc1cccc(S(C)(=O)=O)c1S(=O)(=O)NC(=O)c1cc2ccc(N(C)C)cc2o1 [Example 140, 6-(Dimethylamino)-N-[2-(methanesulfonyl)-6-methoxybenzene-1-sulfonyl]-1-benzofuran-2-carboxamide] | 7.83e-06 M | 5670 nM | 9650 nM | > 20000 nM |
| COc1cccc(S(=O)(=O)N(C)C)c1S(=O)(=O)NC(=O)c1cc2ccc(N(C)C)cc2o1 [Example 141, 6-(Dimethylamino)-N-[2-(dimethylsulfamoyl)-6-methoxybenzene-1-sulfonyl]-1-benzofuran-2-carboxamide] | 1.92e-06 M | 317 nM | 1760 nM | > 20000 nM |
| CC(C)Nc1ncc(Br)cc1S(=O)(=O)NC(=O)c1cc2ccc(N(C)C)cc2o1 [Example 145, N-{5-Bromo-2-[(propan-2-yl)amino]pyridine-3-sulfonyl}-6-(dimethylamino)-1-benzofuran-2-carboxamide] | 7.2e-06 M | 438 nM | 6800 nM | > 20000 nM |
| CN(C)c1ccc2cc(C(=O)NS(=O)(=O)c3cc(Br)cnc3NC3CC3)oc2c1 [Example 146, N-[5-Bromo-2-(cyclopropylamino)pyridine-3-sulfonyl]-6-(dimethylamino)-1-benzofuran-2-carboxamide] | 3.73e-06 M | 266 nM | 5160 nM | > 20000 nM |
| CCCNc1ncc(Br)cc1S(=O)(=O)NC(=O)c1cc2ccc(N(C)C)cc2o1 [Example 150, N-[5-bromo-2-(propylamino)pyridine-3-sulfonyl]-6-(dimethylamino)-1-benzofuran-2-carboxamide] | > 2e-05 M | 429 nM | 8290 nM | 10200 nM |
| Cc1cccc(Nc2ccncc2S(=O)(=O)NC(=O)c2cc3ccc(N(C)C)cc3o2)c1 [Example 151, 6-(Dimethylamino)-N-[4-(3-methylanilino)pyridine-3-sulfonyl]-1-benzofuran-2-carboxamide] | 2.87e-06 M | 234 nM | 9850 nM | > 20000 nM |
| COc1ccc(S(=O)(=O)NC(=O)c2cc3ccc(N(C)C)cc3o2)cn1 [Example 152, 6-(Dimethylamino)-N-(6-methoxypyridine-3-sulfonyl)-1-benzofuran-2-carboxamide] | 2.16e-06 M | 1400 nM | 2930 nM | > 20000 nM |
| CN(C)c1ccc2cc(C(=O)NS(=O)(=O)c3ccc(N)c4cccnc34)oc2c1 [Example 166, N-(5-Aminoquinoline-8-sulfonyl)-6-(dimethylamino)-1-benzofuran-2-carboxamide] | 1.5e-07 M | 56.4 nM | 150 nM | 6310 nM |
| CN(C)c1ccc2cc(C(=O)NS(=O)(=O)c3ccccc3OCCN)oc2c1 [Example 167, N-[2-(2-Aminoethoxy)benzene-1-sulfonyl]-6-(dimethylamino)-1-benzofuran-2-carboxamide hydrogen chloride (1/1)] | 9.52e-06 M | 2060 nM | 9100 nM | > 20000 nM |
| CN(C)c1ccc2cc(C(=O)NS(=O)(=O)c3ccccc3OCCOCCOCCOCCNc3ccc([N+](=O)[O-])c4nonc34)oc2c1 [Example 168, 6-(Dimethylamino)-N-(2-{2-[2-(2-{2-[(7-nitro-2,1,3-benzoxadiazol-4-yl)amino]ethoxy}ethoxy)ethoxy]ethoxy}benzene-1-sulfonyl)-1-benzofuran-2-carboxamide] | 1.24e-05 M | 128 nM | 8600 nM | > 20000 nM |
| CCOc1ccc(C(F)(F)F)cc1S(=O)(=O)NC(=O)c1cc2ccc(N(C)C)cc2o1 [Example 172, 6-(Dimethylamino)-N-[2-ethoxy-5-(trifluoromethyl)phenyl]sulfonyl-benzofuran-2-carboxamide] | 8.08e-08 M | 54 nM | 72.3 nM | > 20000 nM |
| CCOc1ccc(F)cc1S(=O)(=O)NC(=O)c1cc2ccc(N(C)C)cc2o1 [Example 173, 6-(Dimethylamino)-N-(2-ethoxy-5-fluoro-phenyl)sulfonyl-benzofuran-2-carboxamide] | 1.1e-07 M | 97.3 nM | 67.4 nM | > 20000 nM |
| CC(C)c1ccc(OCc2ccccc2)c(S(=O)(=O)NC(=O)c2cc3ccc(N(C)C)cc3o2)c1 [Example 176, N-(2-Benzyloxy-5-isopropyl-phenyl)sulfonyl-6-(dimethylamino)benzofuran-2-carboxamide] | 9.71e-08 M | 12.8 nM | 34.8 nM | 19500 nM |
| CC(C)c1ccc(OCC(F)(F)F)c(S(=O)(=O)NC(=O)c2cc3ccc(N(C)C)cc3o2)c1 [Example 178, 6-(Dimethylamino)-N-[5-isopropyl-2-(2,2,2-trifluoroethoxy)phenyl]sulfonyl-benzofuran-2-carboxamide] | 8.65e-08 M | 11 nM | 69.6 nM | > 20000 nM |
| CC(C)Oc1ccc(C(C)(C)C)cc1S(=O)(=O)NC(=O)c1cc2ccc(N(C)C)cc2o1 [Example 183, N-((5-(tert-butyl)-2-isopropoxyphenyl)sulfonyl)-6-(dimethylamino)benzofuran-2-carboxamide] | 7.53e-08 M | 15.4 nM | 45.5 nM | > 20000 nM |
| Cc1ccc2cccc(S(=O)(=O)NC(=O)c3cc4cc(Cl)c(N(C)C)cc4o3)c2n1 [Example 187, 5-Chloro-6-(dimethylamino)-N-((2-methylquinolin-8-yl)sulfonyl)benzofuran-2-carboxamide] | > 2e-05 M | 6640 nM | > 20000 nM | > 20000 nM |
| CCOc1ccccc1S(=O)(=O)NC(=O)c1cc2cc(Cl)c(N(C)C)cc2o1 [Example 188, 5-Chloro-6-(dimethylamino)-N-((2-ethoxyphenyl)sulfonyl)benzofuran-2-carboxamide] | > 2e-05 M | 10300 nM | > 20000 nM | > 20000 nM |
